Results on seven compounds are retold here after US7282599B2, “Dithiocarbamate antiviral agents and methods of using same” (Avir Green Hills Biotechnology Research Devlopment Trade AG, priority 2001, dated 2007).

For series [1], the system named is HRV2. The series is described as follows: Cell Titer 96 cell proliferation assay, viability of HRV2-infected HeLa cells. The format is cell-based, human rhinovirus. The conditions noted are these: for protective effect during viral proliferation: determined as described in Example 3, HRV2-infected HeLa cells. An excerpt: A cell proliferation assay was done to test the effect of PDTC or DDTC on the viability of the cells during a viral infection.

The subject of a further series is HeLa cells. The series is described as follows: Cell proliferation assay on uninfected HeLa cells (toxicity control).
The subject of the next series is mengovirus virions. The conditions noted are these: Calvert, Interferon Research 1990; cited from earlier work.
Series [2] has as its system HRV2. The experiment in a line: Crystal violet staining of cell lawn of HRV2-infected HeLa cells. The format is cell-based, human rhinovirus. Particulars: HRV2 100 TCID50 per cell, compound added 1 hour after infection, stained after 24 hours.
The test system of a further series is influenza virus. The conditions noted are these: Knobil et al., Am. J. Physiol. 1998; cited from earlier work.
Another series relates to respiratory RNA viruses. The series is described as follows: Action of antioxidants against respiratory RNA viruses (summary statement). The format is cell-based.
For series [3], the system named is human immunodeficiency virus. The conditions noted are these: asymptomatic and minimally symptomatic HIV patients, HIV87 Study Group 1993; cited from earlier work.

As to `CCN(CC)C(=S)S` [DDTC, N, N-diethyldithiocarbamate], the “viability of infected cells” value in the series with HRV2 [1] (HeLa cells, HRV2 20 TCID50/cell, 24 hours after infection, even slight concentrations) is recorded as “significantly increased”. Moreover, the “toxicity of the concentration used to inhibit the viral infections” value in the series with HeLa cells (HeLa cells) is “exhibits no toxicity”. For the same compound, in the series on HeLa cells (compound alone, uninfected HeLa cells), the “effects on uninfected cells (viability)” value is “only minor effects on uninfected cells”. Further, the “action on mengovirus virions” value in the series with mengovirus virions is reported as “inactivates mengovirus virions”.
For the compound `CC(=O)N[C@@H](CS)C(=O)O` [NAC, N-acetylcysteine, reference compound], the “prevention of destruction of the cell lawn by HRV2 infection” value in the series with HRV2 [2] is on record as “not”. The “inhibition of influenza virus infection or replication” value in the series with influenza virus is reported as “neither NAC nor PDTC inhibits influenza virus infection or replication”. The “action against respiratory RNA viruses” value with respiratory RNA viruses is “no action at all”.
Regarding `Cc1c(C)c2c(c(C)c1O)CCC(C)(C(=O)O)O2` (centres unmarked) [Trolox], in the series on HRV2 [1], the “protective effect during viral proliferation” value is given as “none of these antioxidants had any protective effect”.
As for `O=C1O[C@H]([C@@H](O)CO)C(O)=C1O` [Vitamin C], the “protective effect during viral proliferation” value with HRV2 [1] is reported as “none of these antioxidants had any protective effect”. The “action against respiratory RNA viruses” value in the series with respiratory RNA viruses is given as “no action at all”.
With `CCN(CC)C(=S)S` [dithiocarb], the “cure or improvement of AIDS patients” value in series [3] is reported as “does not cause cure or improvement of the patients”.
With `OCCS` [β-mercaptoethanol], the “protective effect during viral proliferation” value in the series on HRV2 [1] is recorded as “none of these antioxidants had any protective effect”. Moreover, the “action against respiratory RNA viruses” value with respiratory RNA viruses is “no action at all”.
Turning to Vitamin E, the “action against respiratory RNA viruses” value with respiratory RNA viruses is “no action at all”.
